Data as given in ChEMBL document CHEMBL1201862, “PubChem BioAssay data set” (2004).
Active and inactive are the calls of the source.

Experiments:
[1] = tested on: Vero; assay: cells; assay type: functional, cell-based; conditions: Chlorocebus sabaeus
[2] = target: Peroxisome proliferator-activated receptor gamma/Nuclear receptor coactivator 2 (Homo sapiens, UniProt P37231); assay: (§1) TR-FRET dose response biochemical High Throughput Screening assay for agonists of the steroid receptor coactivator 2 (SRC-2) recruitment by the peroxisome proliferator-activated receptor gamma (PPAR gamma): non-selective agonists. [Related pubchem assays: 1297, 1032 ]; assay type: functional
[3] = target: Peroxisome proliferator-activated receptor gamma/Nuclear receptor coactivator 3 (Homo sapiens, UniProt P37231); assay: as §1, with “3 (SRC-3)” for “2 (SRC-2)”, “1301 (Confirmation screen.), 1048 (Primary screen.)]” for “1297, 1032 ]”; assay type: functional
[4] = target: Peroxisome proliferator-activated receptor gamma/Nuclear receptor coactivator 1 (Homo sapiens, UniProt P37231); assay: as §1, with “1 (SRC-1)” for “2 (SRC-2)”, “assays (depositor defined):AID1300, AID1808, AID504735, AID631]” for “assays: 1297, 1032 ]”; assay type: protein assay
[5] = tested on: Escherichia coli; assay: microbe, parasite or virus in culture
[6] = tested on: Escherichia coli; assay: microbe, parasite or virus in culture; remark: listed apart in the source
[7] = tested on: Jurkat; assay: antigen receptor-induced NF-kB inhibitors, dose response, Jurkat, luciferase reporter, luminescence, B- and T-cell (AID 489004); assay type: functional, cell-based; conditions: Homo sapiens;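 also: NF-kB luciferase reporter Jurkat cells stimulated with PMA plus ionomycin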
[8] = tested on: CHO-K1; assay: (§2) Counterscreen for antagonists of the orexin 1 receptor (OX1R; HCRTR1): Homogeneous time resolved fluorescence (HTRF)-based cell-based dose response assay to identify antagonists of the parental CHO-K1 cell line. [Related pubchem assays (depositor defined):AID434989, AID435008, AID463079, AID485270, AID492963, AID492964, AID492965, AID493232, AID504699, AID504701]; assay type: functional; conditions: Cricetulus griseus
[9] = tested on: BJ; assay: cytotoxicity toward BJ-TERT fibroblasts, dose response, cell-based, RAS-independent, luminescence (AID 1933); assay type: functional; conditions: Homo sapiens
[10] = target: T1, Orexin/Hypocretin receptor type 1 (Homo sapiens, UniProt O43613); assay: (§3) Fluorescence-based cell-based high throughput dose response assay for antagonists of the orexin 1 receptor (OX1R; HCRTR1). [Related pubchem assays (depositor defined):AID434989, AID435008, AID463079, AID485270, AID492963, AID492964, AID492965, AID493232, AID504717, AID504718]; assay type: functional
T1 sequence (O43613 whole entry): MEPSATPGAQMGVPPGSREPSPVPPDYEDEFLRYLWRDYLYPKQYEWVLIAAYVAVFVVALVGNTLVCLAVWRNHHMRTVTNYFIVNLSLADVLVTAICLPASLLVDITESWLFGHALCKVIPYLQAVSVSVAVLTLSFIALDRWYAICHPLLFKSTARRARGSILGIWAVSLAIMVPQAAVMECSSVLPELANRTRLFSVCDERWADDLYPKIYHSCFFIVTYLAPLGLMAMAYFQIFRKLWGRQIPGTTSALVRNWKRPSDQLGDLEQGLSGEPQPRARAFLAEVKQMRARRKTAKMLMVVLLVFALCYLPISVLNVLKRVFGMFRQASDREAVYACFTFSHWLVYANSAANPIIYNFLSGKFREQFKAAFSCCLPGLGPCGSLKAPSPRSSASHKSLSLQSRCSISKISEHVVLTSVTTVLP

[11] = as §2, with “Fluorescence-based” for “Homogeneous time resolved fluorescence (HTRF)-based”, “cell-based high throughput” for “cell-based”, “CHO” for “CHO-K1”; assay type: functional
[12] = target: T1, Orexin/Hypocretin receptor type 1; assay: as §3, with “Homogeneous Time Resolved Fluorescence (HTRF)-based” for “Fluorescence-based”; assay type: functional
[13] = target: T2, Orexin receptor type 2 (Homo sapiens, UniProt O43614); assay: Counterscreen assay for antagonists of the orexin 1 receptor (OX1R; HCRTR1): Fluorescence-based cell-based dose response assay for antagonists of the orexin 2 receptor (OX2R; HCRTR2), run by assay provider.; assay type: functional
T2 sequence (O43614 whole entry): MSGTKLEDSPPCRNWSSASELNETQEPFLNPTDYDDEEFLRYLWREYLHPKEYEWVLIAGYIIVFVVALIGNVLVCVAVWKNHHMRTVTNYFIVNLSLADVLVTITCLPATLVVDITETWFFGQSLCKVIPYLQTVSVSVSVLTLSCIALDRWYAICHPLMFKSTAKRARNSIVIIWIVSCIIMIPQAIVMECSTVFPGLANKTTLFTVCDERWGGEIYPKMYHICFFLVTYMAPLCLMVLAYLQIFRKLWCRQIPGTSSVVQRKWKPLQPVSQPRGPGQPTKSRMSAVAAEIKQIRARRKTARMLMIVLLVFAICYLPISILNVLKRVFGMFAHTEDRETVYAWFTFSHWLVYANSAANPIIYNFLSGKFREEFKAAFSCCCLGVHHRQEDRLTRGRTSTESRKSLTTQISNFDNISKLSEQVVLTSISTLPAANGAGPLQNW

[14] = target: T2, Orexin receptor type 2; assay: Counterscreen assay for antagonists of the orexin 1 receptor (OX1R; HCRTR1): Homogeneous Time Resolved Fluorescence (HTRF)-based cell-based dose response assay for antagonists of the orexin 2 receptor (OX2R; HCRTR2), run by assay provider.; assay type: functional
[15] = tested on: BJ; assay: cytotoxicity toward BJ-TERT-LT-ST fibroblasts, dose response, cell-based, RAS-independent, luminescence (AID 1935); assay type: functional; conditions: Homo sapiens;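 also: BJ fibroblasts immortalized with TERT plus LT and ST oncogenes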
[16] = tested on: BJ; assay: cells; assay type: functional, cell-based; conditions: Homo sapiens
[17] = cytotoxicity in HEK-293T NF-kB-Luc cells, dose response, cytotoxicity control for B/T-cell NF-kB inhibitor project, cell-based, uHTS hits (AID 489019); assay type: functional;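 also: IC50 reflects cytotoxicity as loss of cell viability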
[18] = cytotoxicity toward DRD oncogenic fibroblasts, dose response, cell-based, non-viral oncogenic, luminescence (AID 1934); assay type: functional; conditions: Homo sapiens
[19] = target: Delta-type opioid receptor (Homo sapiens, UniProt P41143); assay: Counterscreen for agonists of heterodimerization of the mu 1 (OPRM1) and delta 1 (OPRD1) opioid receptors: Luminescence-based cell-based high throughput dose response assay to identify agonists of OPRD1 homodimerization. [Related pubchem assays (depositor defined):AID504326, AID504355, AID504692, AID504904, AID504905]; assay type: functional
[20] = target: Mu-type opioid receptor (Homo sapiens, UniProt P35372); assay: Counterscreen for agonists of heterodimerization of the mu 1 (OPRM1) and delta 1 (OPRD1) opioid receptors: Luminescence-based cell-based high throughput dose response assay to identify agonists of OPRM1 homodimerization.; assay type: functional;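 also: U2OS cells expressing OPRM1 and beta-arrestin as split beta-galactosidase partners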
[21] = target: 5-hydroxytryptamine receptor 5A (Homo sapiens, UniProt P47898); assay: Counterscreen for agonists of OPRM1-OPRD1 heterodimerization: luminescence-based cell-based high throughput dose response assay to identify agonists of 5-hydroxytryptamine (serotonin) 5A receptor (HTR5A). [Related pubchem assays (depositor defined):AID504326, AID504355, AID504692, AID504904, AID504905]; assay type: functional
[22] = target: T3, Short transient receptor potential channel 4 (Mus musculus, UniProt Q9QUQ5); assay: mouse TRPC4 channel inhibitors, dose response, cell-based, HEK293 TRPC4/mu-opioid, Fluo-4 calcium (AID 434942); assay type: functional;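 also: potency of inhibitors blocking the TRPC4 calcium response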
T3 sequence (Q9QUQ5 whole entry): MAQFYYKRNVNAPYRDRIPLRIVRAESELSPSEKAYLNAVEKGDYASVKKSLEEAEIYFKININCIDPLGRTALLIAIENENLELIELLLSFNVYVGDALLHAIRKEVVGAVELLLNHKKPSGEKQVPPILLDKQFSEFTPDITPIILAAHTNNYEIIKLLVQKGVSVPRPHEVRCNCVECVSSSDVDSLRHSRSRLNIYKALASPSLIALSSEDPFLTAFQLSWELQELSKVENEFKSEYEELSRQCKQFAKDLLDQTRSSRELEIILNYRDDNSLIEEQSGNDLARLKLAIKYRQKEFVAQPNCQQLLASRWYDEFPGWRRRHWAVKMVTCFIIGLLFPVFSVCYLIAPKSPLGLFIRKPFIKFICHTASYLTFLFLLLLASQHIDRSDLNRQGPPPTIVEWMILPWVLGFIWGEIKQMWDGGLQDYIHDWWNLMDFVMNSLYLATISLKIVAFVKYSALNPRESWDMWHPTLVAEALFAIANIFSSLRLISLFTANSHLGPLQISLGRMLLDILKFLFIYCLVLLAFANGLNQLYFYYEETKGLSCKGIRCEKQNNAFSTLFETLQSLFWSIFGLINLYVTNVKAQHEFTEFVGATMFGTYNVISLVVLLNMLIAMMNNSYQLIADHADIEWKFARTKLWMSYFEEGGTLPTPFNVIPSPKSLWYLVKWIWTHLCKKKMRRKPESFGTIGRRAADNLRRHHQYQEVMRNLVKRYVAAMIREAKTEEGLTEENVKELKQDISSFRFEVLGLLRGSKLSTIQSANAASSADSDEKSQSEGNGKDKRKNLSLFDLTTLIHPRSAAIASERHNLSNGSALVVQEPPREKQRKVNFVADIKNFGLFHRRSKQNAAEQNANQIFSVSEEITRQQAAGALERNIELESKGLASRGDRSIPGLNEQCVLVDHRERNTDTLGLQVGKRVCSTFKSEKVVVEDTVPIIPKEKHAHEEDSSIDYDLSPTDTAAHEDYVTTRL

[23] = target: Cytochrome P450 2D6 (Homo sapiens, UniProt P10635);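 also: CYP2D6 member of a cytochrome P450 panel assay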
[24] = target: Cytochrome P450 2C9 (Homo sapiens, UniProt P11712)
[25] = target: Cytochrome P450 2C19 (Homo sapiens, UniProt P33261); assay: Cytochrome panel assay with activity outcomes. Panel member name: p450-cyp2c19 Compounds with AC50 equal or less than 10 uM are considered active; assay type: functional; conditions: read-out: AC50
[26] = tested on: A-375; assay: MITF: Counter assay: A375 proliferation Measured in Cell-Based System Using Plate Reader - 2084-03_Inhibitor_Dose_DryPowder_Activity. [Related pubchem assays (depositor defined):AID488944]; assay type: functional; conditions: Homo sapiens
[27] = target: T4, Microphthalmia-associated transcription factor (Homo sapiens, UniProt O75030); assay: TRPM1 promoter luciferase signal decrease, dose response, MITF inhibitor project, cell-based, SK-MEL-5, cherry-picked, set 3 (AID 493073); assay type: functional
T4 sequence (O75030 whole entry): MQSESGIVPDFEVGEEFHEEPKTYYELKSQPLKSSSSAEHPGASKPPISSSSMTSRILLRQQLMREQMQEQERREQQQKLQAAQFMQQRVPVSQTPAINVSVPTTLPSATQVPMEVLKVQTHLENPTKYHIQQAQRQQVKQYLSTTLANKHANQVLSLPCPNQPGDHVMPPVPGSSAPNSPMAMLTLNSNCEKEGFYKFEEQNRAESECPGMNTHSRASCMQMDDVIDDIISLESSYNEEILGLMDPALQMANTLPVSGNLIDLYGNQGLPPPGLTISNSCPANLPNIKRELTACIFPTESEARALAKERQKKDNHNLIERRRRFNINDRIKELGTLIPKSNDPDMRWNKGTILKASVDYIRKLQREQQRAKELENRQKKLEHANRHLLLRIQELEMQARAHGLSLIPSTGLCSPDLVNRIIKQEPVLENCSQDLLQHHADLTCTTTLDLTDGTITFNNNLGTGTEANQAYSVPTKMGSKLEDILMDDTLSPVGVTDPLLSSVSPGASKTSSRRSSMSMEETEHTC

[28] = A Cell Based Secondary Assay To Explore Cytotoxicity of Compounds that Sensitize Mycobacterium Tuberculosis to Beta-Lactam Antibiotics.; assay type: functional
[29] = target: T3, Short transient receptor potential channel 4; assay: mouse TRPC4 channel activators, dose response, cell-based, HEK293 TRPC4/mu-opioid, Fluo-4 calcium (AID 434937); assay type: functional

Cytochrome P450 2C9, sequence (P11712 whole entry): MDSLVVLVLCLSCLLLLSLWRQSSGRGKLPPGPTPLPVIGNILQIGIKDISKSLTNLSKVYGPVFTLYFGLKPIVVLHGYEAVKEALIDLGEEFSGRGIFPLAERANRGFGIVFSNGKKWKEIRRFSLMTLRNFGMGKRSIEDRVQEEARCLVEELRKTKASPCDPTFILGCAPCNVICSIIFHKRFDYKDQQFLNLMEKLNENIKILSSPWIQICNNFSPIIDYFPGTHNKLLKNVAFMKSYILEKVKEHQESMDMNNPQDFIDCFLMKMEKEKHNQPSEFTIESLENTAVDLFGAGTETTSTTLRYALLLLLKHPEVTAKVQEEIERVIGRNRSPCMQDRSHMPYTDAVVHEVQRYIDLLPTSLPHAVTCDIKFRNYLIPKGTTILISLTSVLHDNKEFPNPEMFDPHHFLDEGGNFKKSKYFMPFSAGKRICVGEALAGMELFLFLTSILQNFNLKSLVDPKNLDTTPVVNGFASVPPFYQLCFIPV
Peroxisome proliferator-activated receptor gamma/Nuclear receptor coactivator 2, sequence (P37231 whole entry): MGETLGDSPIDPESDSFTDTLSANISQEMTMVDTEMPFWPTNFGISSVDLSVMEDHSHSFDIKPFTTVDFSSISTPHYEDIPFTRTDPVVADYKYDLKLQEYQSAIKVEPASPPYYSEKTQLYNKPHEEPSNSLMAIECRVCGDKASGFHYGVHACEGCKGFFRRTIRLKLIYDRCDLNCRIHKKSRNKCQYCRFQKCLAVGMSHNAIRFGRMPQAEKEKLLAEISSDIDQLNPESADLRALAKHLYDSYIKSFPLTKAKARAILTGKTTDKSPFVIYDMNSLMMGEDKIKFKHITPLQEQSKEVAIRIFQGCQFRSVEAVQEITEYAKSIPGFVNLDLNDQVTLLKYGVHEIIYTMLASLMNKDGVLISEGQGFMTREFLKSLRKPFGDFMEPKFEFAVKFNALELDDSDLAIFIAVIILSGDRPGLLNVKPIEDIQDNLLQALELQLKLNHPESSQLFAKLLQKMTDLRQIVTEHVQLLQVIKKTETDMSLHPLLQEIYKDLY
Peroxisome proliferator-activated receptor gamma/Nuclear receptor coactivator 2, sequence (Q15596 whole entry, further chain): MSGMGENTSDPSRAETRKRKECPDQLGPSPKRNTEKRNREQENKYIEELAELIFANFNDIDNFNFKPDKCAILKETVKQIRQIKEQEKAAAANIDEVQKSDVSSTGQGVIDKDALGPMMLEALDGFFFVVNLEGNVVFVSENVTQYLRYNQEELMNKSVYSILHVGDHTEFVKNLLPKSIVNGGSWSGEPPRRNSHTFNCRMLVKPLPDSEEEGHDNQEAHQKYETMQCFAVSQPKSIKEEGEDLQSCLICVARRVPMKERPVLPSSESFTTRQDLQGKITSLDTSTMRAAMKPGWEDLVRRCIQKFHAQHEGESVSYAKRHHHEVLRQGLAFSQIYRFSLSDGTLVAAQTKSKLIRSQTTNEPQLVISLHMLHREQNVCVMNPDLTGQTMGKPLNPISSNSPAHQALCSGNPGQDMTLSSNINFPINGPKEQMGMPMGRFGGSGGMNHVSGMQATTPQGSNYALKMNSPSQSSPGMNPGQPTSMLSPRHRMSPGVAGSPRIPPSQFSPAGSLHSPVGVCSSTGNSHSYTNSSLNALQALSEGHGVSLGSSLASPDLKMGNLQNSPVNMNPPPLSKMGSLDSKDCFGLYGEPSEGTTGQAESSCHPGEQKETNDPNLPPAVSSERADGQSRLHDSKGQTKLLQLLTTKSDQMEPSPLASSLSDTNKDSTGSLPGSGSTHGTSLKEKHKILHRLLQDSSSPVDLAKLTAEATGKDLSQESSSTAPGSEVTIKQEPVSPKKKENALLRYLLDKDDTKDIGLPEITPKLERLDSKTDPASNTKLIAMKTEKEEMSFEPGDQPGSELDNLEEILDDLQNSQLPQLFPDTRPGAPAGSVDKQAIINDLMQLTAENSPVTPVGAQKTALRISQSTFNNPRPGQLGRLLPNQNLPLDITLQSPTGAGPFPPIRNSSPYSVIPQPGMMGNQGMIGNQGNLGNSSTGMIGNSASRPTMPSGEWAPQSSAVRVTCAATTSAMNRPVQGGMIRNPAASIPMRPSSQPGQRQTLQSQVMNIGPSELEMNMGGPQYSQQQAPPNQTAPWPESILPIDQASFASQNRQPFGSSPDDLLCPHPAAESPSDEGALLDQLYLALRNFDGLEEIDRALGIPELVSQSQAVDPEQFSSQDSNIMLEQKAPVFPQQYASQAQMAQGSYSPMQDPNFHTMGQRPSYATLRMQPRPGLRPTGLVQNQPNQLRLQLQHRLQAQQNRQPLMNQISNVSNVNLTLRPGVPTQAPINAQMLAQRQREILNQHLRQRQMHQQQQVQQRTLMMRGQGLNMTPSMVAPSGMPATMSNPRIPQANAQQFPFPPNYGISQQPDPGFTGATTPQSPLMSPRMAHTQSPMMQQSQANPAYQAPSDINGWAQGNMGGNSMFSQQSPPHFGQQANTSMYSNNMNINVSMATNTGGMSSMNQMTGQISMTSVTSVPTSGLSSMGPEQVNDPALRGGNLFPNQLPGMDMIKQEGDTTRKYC
Peroxisome proliferator-activated receptor gamma/Nuclear receptor coactivator 3, sequence (P37231 whole entry): as the sequence (P37231 whole entry) above
Peroxisome proliferator-activated receptor gamma/Nuclear receptor coactivator 3, sequence (Q9Y6Q9 whole entry, further chain): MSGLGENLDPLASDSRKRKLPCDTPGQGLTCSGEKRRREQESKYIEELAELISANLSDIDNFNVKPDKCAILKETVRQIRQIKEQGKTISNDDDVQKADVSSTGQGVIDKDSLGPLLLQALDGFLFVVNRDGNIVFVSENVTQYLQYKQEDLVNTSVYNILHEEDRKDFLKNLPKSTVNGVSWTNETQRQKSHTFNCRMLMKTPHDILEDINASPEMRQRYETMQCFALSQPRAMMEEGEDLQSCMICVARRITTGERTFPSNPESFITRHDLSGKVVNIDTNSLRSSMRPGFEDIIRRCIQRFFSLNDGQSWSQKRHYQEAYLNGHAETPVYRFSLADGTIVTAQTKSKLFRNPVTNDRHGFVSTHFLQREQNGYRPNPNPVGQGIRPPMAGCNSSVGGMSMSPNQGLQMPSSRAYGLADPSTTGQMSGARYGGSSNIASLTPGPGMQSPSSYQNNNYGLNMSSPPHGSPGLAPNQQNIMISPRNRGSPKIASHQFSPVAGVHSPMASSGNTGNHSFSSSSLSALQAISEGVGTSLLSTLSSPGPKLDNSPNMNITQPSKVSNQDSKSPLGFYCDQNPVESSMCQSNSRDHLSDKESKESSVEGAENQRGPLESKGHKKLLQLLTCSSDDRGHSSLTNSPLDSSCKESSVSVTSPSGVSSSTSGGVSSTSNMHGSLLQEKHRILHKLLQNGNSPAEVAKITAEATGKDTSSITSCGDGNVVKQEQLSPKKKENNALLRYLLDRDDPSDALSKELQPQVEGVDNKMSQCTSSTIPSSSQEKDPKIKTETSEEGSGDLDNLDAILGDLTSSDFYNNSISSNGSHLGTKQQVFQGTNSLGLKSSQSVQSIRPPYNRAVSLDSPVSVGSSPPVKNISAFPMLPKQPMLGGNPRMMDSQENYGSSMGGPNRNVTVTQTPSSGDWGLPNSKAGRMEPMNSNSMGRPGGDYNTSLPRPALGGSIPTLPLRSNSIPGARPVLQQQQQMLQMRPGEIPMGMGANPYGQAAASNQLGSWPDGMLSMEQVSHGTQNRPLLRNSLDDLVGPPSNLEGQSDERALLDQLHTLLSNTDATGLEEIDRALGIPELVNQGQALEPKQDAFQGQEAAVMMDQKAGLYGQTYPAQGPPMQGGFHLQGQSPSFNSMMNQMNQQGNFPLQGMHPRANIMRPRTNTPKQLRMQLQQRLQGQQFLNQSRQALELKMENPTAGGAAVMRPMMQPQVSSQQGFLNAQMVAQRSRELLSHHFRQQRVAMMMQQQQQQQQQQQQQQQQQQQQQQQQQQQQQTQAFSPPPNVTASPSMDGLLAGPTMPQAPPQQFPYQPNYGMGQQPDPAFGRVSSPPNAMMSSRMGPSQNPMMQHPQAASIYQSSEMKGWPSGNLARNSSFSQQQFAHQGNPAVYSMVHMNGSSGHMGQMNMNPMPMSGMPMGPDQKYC
Mu-type opioid receptor, sequence (P35372 whole entry): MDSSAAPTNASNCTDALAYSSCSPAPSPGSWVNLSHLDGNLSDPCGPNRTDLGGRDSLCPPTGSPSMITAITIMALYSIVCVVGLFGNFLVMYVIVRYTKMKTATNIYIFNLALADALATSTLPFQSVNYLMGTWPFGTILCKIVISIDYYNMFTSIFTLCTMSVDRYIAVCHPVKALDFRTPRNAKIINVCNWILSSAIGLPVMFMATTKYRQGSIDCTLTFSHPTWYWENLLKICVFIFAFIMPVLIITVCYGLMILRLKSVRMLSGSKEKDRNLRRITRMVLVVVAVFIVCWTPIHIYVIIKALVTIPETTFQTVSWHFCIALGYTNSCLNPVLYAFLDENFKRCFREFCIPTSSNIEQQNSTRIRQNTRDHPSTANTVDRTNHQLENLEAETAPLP

Question: Which IC50 [1] does the source give for `Sc1nnc(-c2ccccn2)n1/N=C/c1ccc(-c2ccccc2Br)o1` here?
Answer: 23.4 µM (active)

Question: And the EC50 [2]?
Answer: 2.83 µM (active)

Question: And the EC50 [3]?
Answer: > 79.4 µM (not active)

Question: And the EC50 [4]?
Answer: 2.75 µM (active)

Question: Which AC50 [5] does the source give for `CC(C)(C)OC(=O)N1CCCC(C(=O)Nc2cccc(C(=O)NCCc3ccccc3)c2)C1` (stereo not given) here?
Answer: 21.1 µM (active)

Question: What about the AC50 [6] of the same compound?
Answer: 322 µM (active)

Question: With `O=C(NCc1ccccc1)c1ccc(CS(=O)(=O)c2ccccc2)o1` as the compound, how does the AC50 [5] read?
Answer: 28.6 µM (active)

Question: For `Cc1nn(-c2ccccc2)c(C)c1/C=N/NC(=O)c1cc(-c2cccs2)[nH]n1`, which IC50 [7] is on record?
Answer: 10.3 µM (active)

Question: And the IC50 [8]?
Answer: > 66.2 µM (inactive)

Question: What about the EC50 [9] of the same compound?
Answer: 0.66 µM (inconclusive)

Question: What about the IC50 [10] of the same compound?
Answer: 3.99 µM (active)

Question: What about the IC50 [11] of the same compound?
Answer: > 49.7 µM (inactive)

Question: And the IC50 [12]?
Answer: 2.99 µM (active)

Question: And the IC50 [13]?
Answer: 37 µM (inactive)

Question: What about the IC50 [14] of the same compound?
Answer: > 50 µM (inactive)

Question: What about the EC50 [15] of the same compound?
Answer: 0.601 µM (inconclusive)

Question: What about the EC50 [16] of the same compound?
Answer: 0.79 µM (active)

Question: And the IC50 [17]?
Answer: 9.45 µM (active)

Question: What about the EC50 [18] of the same compound?
Answer: 0.644 µM (inconclusive)

Question: For `COc1ccc2c(c1)C=C(CN1CCC(CO)(CCc3ccccc3)CC1)CO2`, which EC50 [19] is on record?
Answer: 67.7 µM (inactive)

Question: What about the EC50 [20] of the same compound?
Answer: 85.9 µM (inactive)

Question: And the EC50 [21]?
Answer: > 92.5 µM (inactive)

Question: And the EC50 [22]?
Answer: 2.11 µM (active)

Question: What does the source list for `O=C(Nc1nc2ccc(F)cc2s1)C1CCCO1` (stereo not given)?
Answer: AC50 [23]: inconclusive; AC50 [24]: 39.8 µM (inconclusive); AC50 [25]: 25.1 µM (inconclusive)

Question: Which results are given for `CC(C)C1CC(CCNCc2ccc(N(C)C)cc2)(c2ccccc2)CCO1` (stereo not given)?
Answer: AC50 [26]: 20.7 µM (active); AC50 [27]: 11.1 µM (active); CC50 [28]: 33.3 µM (active); EC50 [29]: 6.68 µM (active)
